# Measurements published in ChEMBL document CHEMBL6096686, “Lanosterol 14α-Demethylase (CYP51)/Heat Shock Protein 90 (Hsp90) Dual Inhibitors for the Treatment of Invasive Candidiasis” (J Med Chem, 2025).
# Activity calls are given as the source filed them. No cut-off for these calls is given here.
# Key:
# [1] = tested on: Candida albicans; test: Antifungal activity against Candida albicans SC5314 incubated for 48 hrs by CLSI based liquid microdilution technique; assay type: functional
# [2] = tested on: Pichia kudriavzevii; test: Antifungal activity against Candida krusei 10153 incubated for 48 hrs by CLSI based liquid microdilution technique; assay type: functional
# [3] = tested on: Nakaseomyces glabratus; test: Antifungal activity against Candida glabrata 7804 incubated for 48 hrs by CLSI based liquid microdilution technique; assay type: functional
# [4] = tested on: Cryptococcus neoformans; test: Antifungal activity against Cryptococcus neoformans H99 incubated for 72 hrs by CLSI based liquid microdilution technique; assay type: functional
# [5] = tested on: Candida albicans; test: Antifungal activity against Candida albicans SC5314 assessed as decrease in RLM1 mRNA level at 4 ug/ml measured after 24 hrs by real time RT-PCR analysis; assay type: functional, organism-based; conditions: dose 4.0 µg/ml
# [6] = Cytotoxicity against human L02 cells measured after 72 hrs by CCK8 assay; assay type: toxicity, cell-based
# [7] = tested on: Candida albicans; test: Antifungal activity against Candida albicans SC5314 harboring HSP90 monoallelic knockout incubated for 48 hrs by CLSI based liquid microdilution technique; assay type: functional
# [8] = tested on: Candida albicans; test: Antifungal activity against Candida albicans SC5314 assessed as decrease in BCR1 mRNA level at 4 ug/ml measured after 24 hrs by real time RT-PCR analysis; assay type: functional, organism-based; conditions: dose 4.0 µg/ml
# [9] = tested on: Candida albicans; test: Inhibition of yeast to hypha transition in Candida albicans SC5314 at 8 ug/ml incubated for 2.5 hrs by inverted microscopy relative to control; assay type: functional
# [10] = tested on: Candida albicans; test: Antifungal activity against Candida albicans SC5314 assessed as decrease in EAP1 mRNA level at 4 ug/ml measured after 24 hrs by real time RT-PCR analysis; assay type: functional, organism-based; conditions: dose 4.0 µg/ml
# [11] = tested on: Candida albicans; test: Antifungal activity against Candida albicans SC5314 assessed as fungal growth inhibition at 4 ug/ml incubated for 48 hrs by spot-plating method; assay type: functional, organism-based; conditions: dose 4.0 µg/ml
# [12] = tested on: Candida albicans; test: Selectivity index, ratio of MIC80 antifungal activity against Candida albicans SC5314 to MIC80 for antifungal activity against Candida albicans SC5314 harboring HSP90 monoallelic knockout; assay type: functional
# [13] = target: T1, Lanosterol 14-alpha demethylase (Candida albicans (strain SC5314 / ATCC MYA-2876) (Yeast), UniProt P10613); test: Inhibition of CYP51 in Candida albicans SC5314 assessed as accumulation of eburicol at 4 ug/ml measured after 48 hrs by GC-MS analysis; conditions: at 4 µg/mL
# T1 sequence (P10613 whole entry): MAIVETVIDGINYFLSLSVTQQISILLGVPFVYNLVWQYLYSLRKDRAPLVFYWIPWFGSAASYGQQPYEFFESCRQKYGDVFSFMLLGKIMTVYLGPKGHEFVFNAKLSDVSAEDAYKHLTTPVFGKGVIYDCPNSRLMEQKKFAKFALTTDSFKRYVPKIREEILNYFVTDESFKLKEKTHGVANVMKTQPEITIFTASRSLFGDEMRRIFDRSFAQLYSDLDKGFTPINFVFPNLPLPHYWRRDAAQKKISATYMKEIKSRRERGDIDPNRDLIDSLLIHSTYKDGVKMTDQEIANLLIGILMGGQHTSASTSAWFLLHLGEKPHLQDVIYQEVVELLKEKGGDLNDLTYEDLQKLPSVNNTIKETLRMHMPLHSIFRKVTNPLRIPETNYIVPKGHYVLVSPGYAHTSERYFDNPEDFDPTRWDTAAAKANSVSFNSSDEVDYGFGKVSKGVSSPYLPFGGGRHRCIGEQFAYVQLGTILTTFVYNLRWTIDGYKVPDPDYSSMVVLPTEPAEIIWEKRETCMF
# [14] = tested on: Candida albicans; test: Inhibition of yeast to hypha transition in Candida albicans SC5314 at 4 ug/ml incubated for 2.5 hrs by inverted microscopy; assay type: functional, organism-based; conditions: dose 4.0 µg/ml
# [15] = tested on: Candida albicans; test: Inhibition of biofilm formation in Candida albicans SC5314 at 32 ug/ml incubated for 24 hrs by XTT reduction method relative to control; assay type: functional
# [16] = tested on: Candida albicans; test: Inhibition of biofilm formation in Candida albicans SC5314 at 4 ug/ml incubated for 24 hrs by XTT reduction method relative to control; assay type: functional
# [17] = target: T1, Lanosterol 14-alpha demethylase; test: Inhibition of CYP51 in Candida albicans SC5314 assessed as decrease in ERG26 mRNA level at 4 ug/ml measured after 24 hrs by real time RT-PCR analysis; conditions: at 4 µg/mL
# [18] = target: T1, Lanosterol 14-alpha demethylase; test: Inhibition of CYP51 in Candida albicans SC5314 assessed as decrease in ERG3 mRNA level at 4 ug/ml measured after 24 hrs by real time RT-PCR analysis; conditions: at 4 µg/mL
# [19] = tested on: Candida albicans; test: Antifungal activity against Candida albicans SC5314 assessed as decrease in ZAP1 mRNA level at 4 ug/ml measured after 24 hrs by real time RT-PCR analysis; assay type: functional, organism-based; conditions: dose 4.0 µg/ml
# [20] = target: Heat shock protein 90 homolog (Candida albicans (strain SC5314 / ATCC MYA-2876) (Yeast), UniProt P46598); test: Inhibition of HSP90 extracted from Candida albicans SC5314 lysate using FITC-Geldanamycin as substrate incubated for 6 hrs by fluorescence polarization assay; assay type: subcellular
# Heat shock protein 90 homolog, sequence (P46598 whole entry): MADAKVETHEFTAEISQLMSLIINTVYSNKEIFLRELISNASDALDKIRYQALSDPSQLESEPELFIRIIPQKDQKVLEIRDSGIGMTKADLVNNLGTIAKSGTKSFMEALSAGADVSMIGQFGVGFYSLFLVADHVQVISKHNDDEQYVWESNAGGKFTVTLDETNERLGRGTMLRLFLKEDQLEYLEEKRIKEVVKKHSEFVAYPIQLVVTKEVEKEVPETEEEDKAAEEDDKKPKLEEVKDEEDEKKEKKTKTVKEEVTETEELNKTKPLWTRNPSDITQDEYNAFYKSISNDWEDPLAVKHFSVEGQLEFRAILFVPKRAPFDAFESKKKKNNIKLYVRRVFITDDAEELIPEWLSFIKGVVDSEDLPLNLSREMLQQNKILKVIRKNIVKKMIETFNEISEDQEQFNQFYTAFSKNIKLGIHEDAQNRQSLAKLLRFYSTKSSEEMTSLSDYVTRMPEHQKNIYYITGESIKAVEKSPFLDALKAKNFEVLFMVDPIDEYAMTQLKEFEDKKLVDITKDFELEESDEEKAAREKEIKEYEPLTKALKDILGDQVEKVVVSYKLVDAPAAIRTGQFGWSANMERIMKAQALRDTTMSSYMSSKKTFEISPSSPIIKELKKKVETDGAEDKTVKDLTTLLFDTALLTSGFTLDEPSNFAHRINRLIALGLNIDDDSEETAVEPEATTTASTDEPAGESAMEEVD
# [21] = tested on: Candida albicans; test: Antifungal activity against Candida albicans SC5314 infected in immunosuppressed ICR mouse administered intraperitoneally treated for 5 days consecutively; assay type: functional, organism-based; conditions: dose 5-20 mg/kg, route ip, time 5.0 day
# [22] = tested on: Candida albicans; test: Antifungal activity against Candida albicans SC5314 assessed as decrease in HWP1 mRNA level at 4 ug/ml measured after 24 hrs by real time RT-PCR analysis; assay type: functional, organism-based; conditions: dose 4.0 µg/ml
# [23] = Cytotoxicity against HUVEC cells measured after 72 hrs by CCK8 assay; assay type: toxicity, cell-based; conditions: human
# [24] = tested on: Candida albicans; test: Inhibition of biofilm formation in Candida albicans SC5314 incubated for 24 hrs by XTT reduction method; assay type: functional, organism-based; conditions: dose <= 32.0 µg/ml
# [25] = tested on: Candida albicans; test: Antifungal activity against Candida albicans SC5314 assessed as decrease in CPH1 mRNA level at 4 ug/ml measured after 24 hrs by real time RT-PCR analysis; assay type: functional, organism-based; conditions: dose 4.0 µg/ml
# [26] = tested on: Candida albicans; test: Antifungal activity against Candida albicans SC5314 assessed as decrease in EFG1 mRNA level at 4 ug/ml measured after 24 hrs by real time RT-PCR analysis; assay type: functional, organism-based; conditions: dose 4.0 µg/ml
# [27] = tested on: Candida albicans; test: Antifungal activity against Candida albicans SC5314 infected in immunosuppressed ICR mouse assessed as reduction in fungal burden in kidney at 5 mg/kg, ip treated for 5 days consecutively (reference value: 6.71 log10CFU/ml); assay type: functional; conditions: time 5 day
# [28] = target: T1, Lanosterol 14-alpha demethylase; test: Inhibition of CYP51 in Candida albicans SC5314 assessed as decrease in ERG6 mRNA level at 4 ug/ml measured after 24 hrs by real time RT-PCR analysis; conditions: at 4 µg/mL
# [29] = tested on: Candida albicans; test: Antifungal activity against Candida albicans SC5314 assessed as decrease in ALS3 mRNA level at 4 ug/ml measured after 24 hrs by real time RT-PCR analysis; assay type: functional, organism-based; conditions: dose 4.0 µg/ml
# [30] = tested on: Candida albicans; test: Antifungal activity against Candida albicans SC5314 assessed as fungal growth inhibition at 4 ug/ml incubated for 48 hrs; assay type: functional, organism-based; conditions: dose 4.0 µg/ml
# [31] = tested on: Candida albicans; test: Inhibition of biofilm formation in Candida albicans SC5314 at 0.5 ug/ml incubated for 24 hrs by XTT reduction method relative to control; assay type: functional
# [32] = tested on: Candida albicans; test: Antifungal activity against Candida albicans SC5314 assessed as fungal growth inhibition at 32 ug/ml incubated for 48 hrs by spot-plating method relative to control; assay type: functional
# [33] = tested on: Candida albicans; test: Antifungal activity against Candida albicans SC5314 infected in immunosuppressed ICR mouse assessed as reduction in fungal burden in kidney at 20 mg/kg, ip treated for 5 days consecutively (reference value: 6.71 log10CFU/ml); assay type: functional; conditions: time 5 day
# [34] = tested on: Candida albicans; test: Antifungal activity against Candida albicans SC5314 assessed as fungal growth inhibition incubated for 48 hrs by spot-plating method; assay type: functional, organism-based; conditions: dose 4-32 µg/ml
# [35] = tested on: Candida albicans; test: Antifungal activity against Candida albicans SC5314 assessed as decrease in TEC1 mRNA level at 4 ug/ml measured after 24 hrs by real time RT-PCR analysis; assay type: functional, organism-based; conditions: dose 4.0 µg/ml
# [36] = tested on: Candida albicans; test: Antifungal activity against Candida albicans SC5314 infected in immunosuppressed ICR mouse assessed as reduction in fungal burden in kidney at 10 mg/kg, ip treated for 5 days consecutively (reference value: 6.71 log10CFU/ml); assay type: functional; conditions: time 5 day
# [37] = target: T1, Lanosterol 14-alpha demethylase; test: Inhibition of CYP51 in Candida albicans SC5314 assessed as decrease in ERG27 mRNA level at 4 ug/ml measured after 24 hrs by real time RT-PCR analysis; conditions: at 4 µg/mL
# [38] = target: Heat shock protein HSP90 (Homo sapiens, UniProt P07900+P08238); test: Inhibition of human HSP90 using FITC-Geldanamycin as substrate incubated for 6 hrs by fluorescence polarization assay; assay type: protein assay
# [39] = tested on: Candida albicans; test: Antifungal activity against Candida albicans SC5314 assessed as decrease in ACE2 mRNA level at 4 ug/ml measured after 24 hrs by real time RT-PCR analysis; assay type: functional, organism-based; conditions: dose 4.0 µg/ml
# [40] = tested on: Candida albicans; test: Antifungal activity against Candida albicans SC5314 assessed as reduction in fungal growth at 8 ug/ml incubated for 48 hrs (reference value: 8.17 log10CFU/ml); assay type: functional; conditions: dose 8 µg/ml
smiles,measurement,setting,value
CCN(C(=O)c1cc(-c2ccc(C)cc2)c(O)cc1O)c1ccc(CN2CCN(C(=O)CCCOc3ccc(CN(C)CC(O)(Cn4cncn4)c4ccc(F)cc4F)cc3)CC2)cc1 (configuration not stated),MIC80,[1],8 µg/mL
same,MIC80,[2],16 µg/mL
same,MIC80,[3],16 µg/mL
same,MIC80,[4],4 µg/mL
CCNC(=O)c1noc(-c2cc(-c3ccc(C)cc3)c(O)cc2O)c1-c1ccc(CN2CCN(C(=O)CCCOc3ccc(CN(C)CC(O)(Cn4cncn4)c4ccc(F)cc4F)cc3)CC2)cc1 (configuration not stated),MIC80,[1],8 µg/mL
same,MIC80,[2],> 64 µg/mL
same,MIC80,[3],16 µg/mL
same,MIC80,[4],4 µg/mL
CCN(C(=O)c1cc(-c2ccc(C)cc2)c(O)cc1O)c1ccc(CN2CCN(CC(O)(Cn3cncn3)c3ccc(F)cc3F)CC2)cc1 (configuration not stated),Activity,[5],Active
same,IC50 at 72 h,[6],2100 nM
same,MIC80,[7],0.004 µg/mL
same,Activity,[8],Active
same,inhibition at 8 µg/mL,[9],100%
same,MIC80,[1],0.063 µg/mL
same,Activity,[10],Active
same,inhibition,[11],Active; Activity Was Superior Than Flc
same,Ratio,[12],16
same,inhibition (INH),[13],Active
same,inhibition,[14],Active; Inhibitory Effect Was Superior Than Flc
same,inhibition at 32 µg/mL,[15],100%
same,inhibition at 4 µg/mL,[16],> 80%
same,inhibition (INH),[17],Active
same,inhibition (INH),[18],Active
same,Activity,[19],Active
same,IC50,[20],740 nM
same,Activity,[21],Dose-dependent-effect
same,Activity,[22],Active
same,IC50 at 72 h,[23],2100 nM
same,inhibition,[24],Dose-dependent-effect; Result Indicated That Compound Was More Potent Than Flc
same,Activity,[25],Active
same,Activity,[26],Active
same,Activity,[27],6.14 log10CFU/ml
same,inhibition (INH),[28],Active
same,Activity,[29],Active
same,MIC80,[2],16 µg/mL
same,inhibition,[30],Active; Activity Was Superior Than Flc
same,inhibition at 0.5 µg/mL,[31],> 50%
same,inhibition at 32 µg/mL,[32],~100%
same,Activity,[33],5.47 log10CFU/ml
same,inhibition,[34],Dose-dependent-effect
same,Activity,[35],Active
same,MIC80,[3],8 µg/mL
same,Activity,[36],5.83 log10CFU/ml
same,inhibition (INH),[37],Active
same,IC50,[38],6630 nM
same,Activity,[39],Active
same,MIC80,[4],4 µg/mL
same,Activity,[40],7.39 log10CFU/ml
CCNC(=O)c1noc(-c2cc(-c3ccc(C)cc3)c(O)cc2O)c1-c1ccc(CN2CCN(C(=O)CCCCCOc3ccc(CN(C)CC(O)(Cn4cncn4)c4ccc(F)cc4F)cc3)CC2)cc1 (configuration not stated),MIC80,[1],4 µg/mL
same,MIC80,[2],> 64 µg/mL
same,MIC80,[3],16 µg/mL
same,MIC80,[4],4 µg/mL
